Test results reported in US12215140B2, “Method of stabilizing protein contained in specimen and solution for stabilizing protein contained in specimen” (EIKEN KAGAKU KABUSHIKI KAISHA, priority 2018, dated 2025).

Tested on: hemoglobin-haptoglobin complex
Experiment: Stability of hemoglobin (as hemoglobin-haptoglobin complex) in samples preserved at 37° C. in preservation solution containing 1 unit/L haptoglobin, Hb measured by latex agglutination method (Examples 1 to 7)
Set-up: species or system human
Settings: for Hb concentration / Recovery ratio with respect to Hb concentration after 0 days / Recovery ratio with respect to Hb after 0 days: 37° C.; for recovery ratio of hemoglobin in the sample: Feces 1, Feces 2, Feces 3
Outline: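 Latex agglutination (anti-human hemoglobin rabbit polyclonal latex) measured Hb in samples stored at 37 °C up to 21 days; values expressed as % recovery versus day 0. Preservation solution: HEPES 40 mmol/L pH 6.8, BSA 0.1%, NaN3 0.1%, haptoglobin 1 unit/L, phenylboronic acid 0–100 mmol/L, optional sugars; ~300 µg/L Hb, 0.5% feces or none.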

[1] = Feces 1, sugar 50 mmol/L + phenylboronic acid 15 mmol/L, 0 days
[2] = Feces 1, sugar 50 mmol/L + phenylboronic acid 15 mmol/L, 7 days
[3] = Feces 1, sugar 50 mmol/L + phenylboronic acid 15 mmol/L, 14 days
[4] = Feces 1, sugar 100 mmol/L + phenylboronic acid 15 mmol/L, 0 days
[5] = Feces 1, sugar 100 mmol/L + phenylboronic acid 15 mmol/L, 0 days (Table 7)
[6] = Feces 1, sugar 100 mmol/L + phenylboronic acid 15 mmol/L, 7 days
[7] = Feces 1, sugar 100 mmol/L + phenylboronic acid 15 mmol/L, 7 days (Table 7)
[8] = Feces 1, sugar 100 mmol/L + phenylboronic acid 15 mmol/L, 14 days
[9] = Feces 1, sugar 100 mmol/L + phenylboronic acid 15 mmol/L, 14 days (Table 7)
[10] = Feces 1, sugar 100 mmol/L + phenylboronic acid 50 mmol/L, 0 days
[11] = Feces 1, sugar 100 mmol/L + phenylboronic acid 50 mmol/L, 7 days
[12] = Feces 1, sugar 100 mmol/L + phenylboronic acid 50 mmol/L, 14 days
[13] = Feces 1, sugar 100 mmol/L, no phenylboronic acid, 0 days
[14] = Feces 1, sugar 100 mmol/L, no phenylboronic acid, 7 days
[15] = Feces 1, sugar 100 mmol/L, no phenylboronic acid, 14 days
[16] = Feces 2, sugar 50 mmol/L + phenylboronic acid 15 mmol/L, 0 days
[17] = Feces 2, sugar 50 mmol/L + phenylboronic acid 15 mmol/L, 7 days
[18] = Feces 2, sugar 50 mmol/L + phenylboronic acid 15 mmol/L, 14 days
[19] = Feces 2, sugar 100 mmol/L + phenylboronic acid 15 mmol/L, 0 days
[20] = Feces 2, sugar 100 mmol/L + phenylboronic acid 15 mmol/L, 0 days (Table 7)
[21] = Feces 2, sugar 100 mmol/L + phenylboronic acid 15 mmol/L, 7 days
[22] = Feces 2, sugar 100 mmol/L + phenylboronic acid 15 mmol/L, 7 days (Table 7)
[23] = Feces 2, sugar 100 mmol/L + phenylboronic acid 15 mmol/L, 14 days
[24] = Feces 2, sugar 100 mmol/L + phenylboronic acid 15 mmol/L, 14 days (Table 7)
[25] = Feces 2, sugar 100 mmol/L + phenylboronic acid 50 mmol/L, 0 days
[26] = Feces 2, sugar 100 mmol/L + phenylboronic acid 50 mmol/L, 7 days
[27] = Feces 2, sugar 100 mmol/L + phenylboronic acid 50 mmol/L, 14 days
[28] = Feces 2, sugar 100 mmol/L, no phenylboronic acid, 0 days
[29] = Feces 2, sugar 100 mmol/L, no phenylboronic acid, 7 days
[30] = Feces 2, sugar 100 mmol/L, no phenylboronic acid, 14 days
[31] = Feces 3, sugar 50 mmol/L + phenylboronic acid 15 mmol/L, 0 days
[32] = Feces 3, sugar 50 mmol/L + phenylboronic acid 15 mmol/L, 7 days
[33] = Feces 3, sugar 50 mmol/L + phenylboronic acid 15 mmol/L, 14 days
[34] = Feces 3, sugar 100 mmol/L + phenylboronic acid 15 mmol/L, 0 days
[35] = Feces 3, sugar 100 mmol/L + phenylboronic acid 15 mmol/L, 0 days (Table 7)
[36] = Feces 3, sugar 100 mmol/L + phenylboronic acid 15 mmol/L, 7 days
[37] = Feces 3, sugar 100 mmol/L + phenylboronic acid 15 mmol/L, 7 days (Table 7)
[38] = Feces 3, sugar 100 mmol/L + phenylboronic acid 15 mmol/L, 14 days
[39] = Feces 3, sugar 100 mmol/L + phenylboronic acid 15 mmol/L, 14 days (Table 7)
[40] = Feces 3, sugar 100 mmol/L + phenylboronic acid 50 mmol/L, 0 days
[41] = Feces 3, sugar 100 mmol/L + phenylboronic acid 50 mmol/L, 7 days
[42] = Feces 3, sugar 100 mmol/L + phenylboronic acid 50 mmol/L, 14 days
[43] = Feces 3, sugar 100 mmol/L, no phenylboronic acid, 0 days
[44] = Feces 3, sugar 100 mmol/L, no phenylboronic acid, 7 days
[45] = Feces 3, sugar 100 mmol/L, no phenylboronic acid, 14 days
[46] = No feces, sugar 50 mmol/L + phenylboronic acid 15 mmol/L, 0 days
[47] = No feces, sugar 50 mmol/L + phenylboronic acid 15 mmol/L, 7 days
[48] = No feces, sugar 50 mmol/L + phenylboronic acid 15 mmol/L, 14 days
[49] = No feces, sugar 100 mmol/L + phenylboronic acid 15 mmol/L, 0 days
[50] = No feces, sugar 100 mmol/L + phenylboronic acid 15 mmol/L, 0 days (Table 7)
[51] = No feces, sugar 100 mmol/L + phenylboronic acid 15 mmol/L, 7 days
[52] = No feces, sugar 100 mmol/L + phenylboronic acid 15 mmol/L, 7 days (Table 7)
[53] = No feces, sugar 100 mmol/L + phenylboronic acid 15 mmol/L, 14 days
[54] = No feces, sugar 100 mmol/L + phenylboronic acid 15 mmol/L, 14 days (Table 7)
[55] = No feces, sugar 100 mmol/L + phenylboronic acid 50 mmol/L, 0 days
[56] = No feces, sugar 100 mmol/L + phenylboronic acid 50 mmol/L, 7 days
[57] = No feces, sugar 100 mmol/L + phenylboronic acid 50 mmol/L, 14 days
[58] = No feces, sugar 100 mmol/L, no phenylboronic acid, 0 days
[59] = No feces, sugar 100 mmol/L, no phenylboronic acid, 7 days
[60] = No feces, sugar 100 mmol/L, no phenylboronic acid, 14 days

## OC[C@@H](O)[C@@H](O)[C@H](O)[C@H](O)CO [Mannitol, mannitol]
[1]
  Hb concentration: 288 µg/L
  Recovery ratio with respect to Hb concentration after 0 days: 100%
[2]
  Hb concentration: 278 µg/L
  Recovery ratio with respect to Hb concentration after 0 days: 96%
[3]
  Hb concentration: 270 µg/L
  Recovery ratio with respect to Hb concentration after 0 days: 94%
[4]
  Hb concentration: 281 µg/L
  Recovery ratio with respect to Hb concentration after 0 days: 100%
[5]
  Hb concentration: 301 µg/L
  Recovery ratio with respect to Hb after 0 days: 100%
[6]
  Hb concentration: 279 µg/L
  Recovery ratio with respect to Hb concentration after 0 days: 99%
[7]
  Hb concentration: 288 µg/L
  Recovery ratio with respect to Hb after 0 days: 96%
[8]
  Hb concentration: 276 µg/L
  Recovery ratio with respect to Hb concentration after 0 days: 98%
[9]
  Hb concentration: 287 µg/L
  Recovery ratio with respect to Hb after 0 days: 95%
[10]
  Hb concentration: 270 µg/L
  Recovery ratio with respect to Hb after 0 days: 100%
[11]
  Hb concentration: 257 µg/L
  Recovery ratio with respect to Hb after 0 days: 95%
[12]
  Hb concentration: 255 µg/L
  Recovery ratio with respect to Hb after 0 days: 95%
[13]
  Hb concentration: 276 µg/L
  Recovery ratio with respect to Hb concentration after 0 days: 100%
[14]
  Hb concentration: 156 µg/L
  Recovery ratio with respect to Hb concentration after 0 days: 57%
[15]
  Hb concentration: 130 µg/L
  Recovery ratio with respect to Hb concentration after 0 days: 47%
[16]
  Hb concentration: 296 µg/L
  Recovery ratio with respect to Hb concentration after 0 days: 100%
[17]
  Hb concentration: 291 µg/L
  Recovery ratio with respect to Hb concentration after 0 days: 98%
[18]
  Hb concentration: 280 µg/L
  Recovery ratio with respect to Hb concentration after 0 days: 95%
[19]
  Hb concentration: 290 µg/L
  Recovery ratio with respect to Hb concentration after 0 days: 100%
[20]
  Hb concentration: 298 µg/L
  Recovery ratio with respect to Hb after 0 days: 100%
[21]
  Hb concentration: 290 µg/L
  Recovery ratio with respect to Hb concentration after 0 days: 100%
[22]
  Hb concentration: 284 µg/L
  Recovery ratio with respect to Hb after 0 days: 95%
[23]
  Hb concentration: 286 µg/L
  Recovery ratio with respect to Hb concentration after 0 days: 99%
[24]
  Hb concentration: 284 µg/L
  Recovery ratio with respect to Hb after 0 days: 95%
[25]
  Hb concentration: 268 µg/L
  Recovery ratio with respect to Hb after 0 days: 100%
[26]
  Hb concentration: 263 µg/L
  Recovery ratio with respect to Hb after 0 days: 98%
[27]
  Hb concentration: 274 µg/L
  Recovery ratio with respect to Hb after 0 days: 102%
[28]
  Hb concentration: 284 µg/L
  Recovery ratio with respect to Hb concentration after 0 days: 100%
[29]
  Hb concentration: 97 µg/L
  Recovery ratio with respect to Hb concentration after 0 days: 34%
[30]
  Hb concentration: 81 µg/L
  Recovery ratio with respect to Hb concentration after 0 days: 28%
[31]
  Hb concentration: 293 µg/L
  Recovery ratio with respect to Hb concentration after 0 days: 100%
[32]
  Hb concentration: 247 µg/L
  Recovery ratio with respect to Hb concentration after 0 days: 84%
[33]
  Hb concentration: 238 µg/L
  Recovery ratio with respect to Hb concentration after 0 days: 81%
[34]
  Hb concentration: 286 µg/L
  Recovery ratio with respect to Hb concentration after 0 days: 100%
[35]
  Hb concentration: 288 µg/L
  Recovery ratio with respect to Hb after 0 days: 100%
[36]
  Hb concentration: 243 µg/L
  Recovery ratio with respect to Hb concentration after 0 days: 85%
[37]
  Hb concentration: 231 µg/L
  Recovery ratio with respect to Hb after 0 days: 80%
[38]
  Hb concentration: 240 µg/L
  Recovery ratio with respect to Hb concentration after 0 days: 84%
[39]
  Hb concentration: 220 µg/L
  Recovery ratio with respect to Hb after 0 days: 76%
[40]
  Hb concentration: 254 µg/L
  Recovery ratio with respect to Hb after 0 days: 100%
[41]
  Hb concentration: 233 µg/L
  Recovery ratio with respect to Hb after 0 days: 92%
[42]
  Hb concentration: 226 µg/L
  Recovery ratio with respect to Hb after 0 days: 89%
[43]
  Hb concentration: 282 µg/L
  Recovery ratio with respect to Hb concentration after 0 days: 100%
[44]
  Hb concentration: 93 µg/L
  Recovery ratio with respect to Hb concentration after 0 days: 33%
[45]
  Hb concentration: 78 µg/L
  Recovery ratio with respect to Hb concentration after 0 days: 28%
[46]
  Hb concentration: 270 µg/L
  Recovery ratio with respect to Hb concentration after 0 days: 100%
[47]
  Hb concentration: 263 µg/L
  Recovery ratio with respect to Hb concentration after 0 days: 98%
[48]
  Hb concentration: 254 µg/L
  Recovery ratio with respect to Hb concentration after 0 days: 94%
[49]
  Hb concentration: 269 µg/L
  Recovery ratio with respect to Hb concentration after 0 days: 100%
[50]
  Hb concentration: 287 µg/L
  Recovery ratio with respect to Hb after 0 days: 100%
[51]
  Hb concentration: 260 µg/L
  Recovery ratio with respect to Hb concentration after 0 days: 97%
[52]
  Hb concentration: 272 µg/L
  Recovery ratio with respect to Hb after 0 days: 95%
[53]
  Hb concentration: 252 µg/L
  Recovery ratio with respect to Hb concentration after 0 days: 94%
[54]
  Hb concentration: 269 µg/L
  Recovery ratio with respect to Hb after 0 days: 94%
[55]
  Hb concentration: 254 µg/L
  Recovery ratio with respect to Hb after 0 days: 100%
[56]
  Hb concentration: 242 µg/L
  Recovery ratio with respect to Hb after 0 days: 95%
[57]
  Hb concentration: 241 µg/L
  Recovery ratio with respect to Hb after 0 days: 95%
[58]
  Hb concentration: 261 µg/L
  Recovery ratio with respect to Hb concentration after 0 days: 100%
[59]
  Hb concentration: 251 µg/L
  Recovery ratio with respect to Hb concentration after 0 days: 96%
[60]
  Hb concentration: 244 µg/L
  Recovery ratio with respect to Hb concentration after 0 days: 93%
Sugar 100 mmol/L further added to other arylboronic acids (3-CPBA, 3-HPBA, 3-APBA) 15 mmol/L
  recovery ratio of hemoglobin in the sample: further improved
Sugar 50 or 100 mmol/L further added to phenylboronic acid 15 mmol/L
  recovery ratio of hemoglobin in the sample: remarkably improved
